Data published in patent US20210318318A1, “Kinase Activity In Tumors” (Institute For Cancer Research d/b/a The Research Institute …, priority 2018, published 2021).

How the values were obtained:
Format in all cases: cell-based, human
COV362 = test: Short-term growth assay (CellTiter-Glo cell viability), kinase inhibitors
Procedure: (§1) Cell viability was determined by Cell Titer Glo analysis.
COV362 cells were treated with increasing concentrations of A-674563 and cell viability assessed by Cell Titer Glo according to manufacturer's instructions. Data represent the mean of six replicates.
(§2) To explore the therapeutic potential of the HGSOC kinome signature, a detailed molecular analysis of protein levels/activity, growth and survival functions was carried out in a panel of recently validated HGSOC cell lines (Coscia et al., Nat. Commun., 2016, 7, 12645) that harbor commonly encountered HGSOC mutations and genetic rearrangements (see, FIG. 5A).
(§3) For short-term growth assays, 3000-5000 cells were plated per well in 96-well plates and allowed to adhere and equilibrate overnight. Drug was added the following morning and after 120 hours of drug treatment, cell viability was assessed using the CellTiter-Glo Luminescent cell viability assay according to manufacturer (Promega). Students t tests were performed for statistical analyses and p values ≤0.05 were considered significant. For colony formation assays, cells were plated in 24-well dishes (3000-5000 cells per well) and incubated overnight before continuous drug treatment for 14 days, with drug and media replaced twice weekly. At the end of treatment, cells were rinsed with PBS and fixed with chilled methanol for 10 minutes at −20° C. Methanol was removed by aspiration, and cells were stained with 0.5% crystal violet in 20% methanol for 20 minutes at room temperature, washed with distilled water, and scanned.

OVCAR4 = test: as above
Procedure: as §1, §2, §3

OVSAHO = test: as above
Procedure: as §1, §2, §3

SNU-119 = test: as above
Procedure: as §1, §2, §3

Kuramochi = test: as above
Procedure: as §1, §2, §3

OVCAR4 cells = test: Drug growth inhibition in cells depleted of dark kinases by siRNA (Cell Titer Glo); settings: increasing doses of drug
Procedure: OVCAR4 cells were transfected with control nontargeting or dark kinase siRNAs and treated with escalating doses of appropriate drugs.
To explore if blocking dark kinases AAK1, STK38 or MRCKA activity in combination with current therapies improves drug efficacy, OVCAR4 cells depleted of AAK1, STK38 or MRCKA were treated with increasing doses of carboplatin, olaparib, JQ1, or a variety of kinase inhibitors in clinical trials for HGSOC.
siRNA transfections were performed using 25 nM siRNA duplex and the reverse transfection protocol. 3000-5000 cells per well were added to 96 well plates with media containing the siRNA and transfection reagent (Lipofectamine RNAiMax) according to the manufacturer's instructions. In experiments where inhibitors were used, the inhibitor was added at the time of transfection. Cells were allowed to grow for 72-120 hours post-transfection prior to CellTiter Glo (Promega) analysis. Two-to-three independent experiments were performed with each cell line and siRNA. Students t tests were performed for statistical analyses and p values ≤0.05 were considered significant. For western blot studies, the same procedure was performed with volumes and cell numbers proportionally scaled to a 60 mm or 10 cm dish, and cells were collected 24-72 hours post-transfection. siRNA product numbers and manufacturers are listed in Table 5.

HGSOC cells = test: Cell viability of HGSOC cell line panel (Cell Titer Glo); settings: increasing concentrations; Cell Titer Glo
Procedure: Cells were treated with increasing concentrations of PF-03758309 and cell viability assessed by Cell Titer Glo according to manufacturer's instructions. Data represent the mean of six replicates.
Cell viability was assessed by Cell Titer Glo according to manufacturing. Data represent the mean of six replicates.
as §3

Compound: NC1(c2ccc(-c3nc4ccn5c(=O)[nH]nc5c4cc3-c3ccccc3)cc2)CCC1 [MK2206]
- Kinase inhibition profile of HGSOC cells (growth inhibition, Cell Titer Glo) (COV362; drug 0.625 uM): 0.8254
- Kinase inhibition profile of HGSOC cells (growth inhibition, Cell Titer Glo) (OVCAR4; drug 0.625 uM): 0.9771
- Kinase inhibition profile of HGSOC cells (growth inhibition, Cell Titer Glo) (OVSAHO; drug 0.625 uM): 0.6233
- Kinase inhibition profile of HGSOC cells (growth inhibition, Cell Titer Glo) (SNU-119; drug 0.625 uM): 0.9728
- Kinase inhibition profile of HGSOC cells (growth inhibition, Cell Titer Glo) (Kuramochi; drug 0.625 uM): 0.4701

Compound: C=CCn1c(=O)c2cnc(Nc3ccc(N4CCN(C)CC4)cc3)nc2n1-c1cccc(C(C)(C)O)n1 [MK-1775]
- Kinase inhibition profile of HGSOC cells (growth inhibition, Cell Titer Glo) (COV362; drug 0.312 uM): 0.03494
- growth inhibition by drug with MRCKA knockdown relative to non-targeting control siRNA (OVCAR4 cells): enhanced growth inhibition
- Kinase inhibition profile of HGSOC cells (growth inhibition, Cell Titer Glo) (OVCAR4; drug 0.312 uM): 0.6747
- Kinase inhibition profile of HGSOC cells (growth inhibition, Cell Titer Glo) (OVSAHO; drug 0.312 uM): 0.5935
- Kinase inhibition profile of HGSOC cells (growth inhibition, Cell Titer Glo) (SNU-119; drug 0.312 uM): 0.4312
- Kinase inhibition profile of HGSOC cells (growth inhibition, Cell Titer Glo) (Kuramochi; drug 0.312 uM): 1.111

Compound: Cc1nc(Nc2[nH]nc3c2CN(C(=O)N[C@H](CN(C)C)c2ccccc2)C3(C)C)c2sccc2n1 [PF03758039]
- Kinase inhibition profile of HGSOC cells (growth inhibition, Cell Titer Glo) (COV362; drug 1.2 uM): 0.4916
- cell viability of HGSOC cells (HGSOC cells): reduced cell viability to the greatest extent in OVCAR4 and KURMAOCHI cells
- Kinase inhibition profile of HGSOC cells (growth inhibition, Cell Titer Glo) (OVCAR4; drug 1.2 uM): 0.2063
- Kinase inhibition profile of HGSOC cells (growth inhibition, Cell Titer Glo) (OVSAHO; drug 1.2 uM): 0.659
- Kinase inhibition profile of HGSOC cells (growth inhibition, Cell Titer Glo) (SNU-119; drug 1.2 uM): 0.3505
- Kinase inhibition profile of HGSOC cells (growth inhibition, Cell Titer Glo) (Kuramochi; drug 1.2 uM): 0.4783

Compound: CC(=O)c1c(C)c2cnc(Nc3ccc(N4CCNCC4)cn3)nc2n(C2CCCC2)c1=O [Palbociclib]
- Kinase inhibition profile of HGSOC cells (growth inhibition, Cell Titer Glo) (COV362; drug 5 uM): 0.92
- Kinase inhibition profile of HGSOC cells (growth inhibition, Cell Titer Glo) (OVCAR4; drug 5 uM): 0.7952
- Kinase inhibition profile of HGSOC cells (growth inhibition, Cell Titer Glo) (OVSAHO; drug 5 uM): 0.6956
- Kinase inhibition profile of HGSOC cells (growth inhibition, Cell Titer Glo) (SNU-119; drug 5 uM): 0.5867
- Kinase inhibition profile of HGSOC cells (growth inhibition, Cell Titer Glo) (Kuramochi; drug 5 uM): 0.09321

Compound: CN(C)C/C=C/C(=O)Nc1ccc(C(=O)Nc2cccc(Nc3ncc(Cl)c(-c4c[nH]c5ccccc45)n3)c2)cc1 [THZ1]
- Kinase inhibition profile of HGSOC cells (growth inhibition, Cell Titer Glo) (COV362; drug 0.156 uM): 1.026
- growth inhibition by drug combined with knockdown of STK38 (OVCAR4 cells): improved growth inhibition
- growth inhibition by drug with MRCKA knockdown relative to non-targeting control siRNA (OVCAR4 cells): enhanced growth inhibition
- Kinase inhibition profile of HGSOC cells (growth inhibition, Cell Titer Glo) (OVCAR4; drug 0.156 uM): 0
- Kinase inhibition profile of HGSOC cells (growth inhibition, Cell Titer Glo) (OVSAHO; drug 0.156 uM): 0
- Kinase inhibition profile of HGSOC cells (growth inhibition, Cell Titer Glo) (SNU-119; drug 0.156 uM): 0
- Kinase inhibition profile of HGSOC cells (growth inhibition, Cell Titer Glo) (Kuramochi; drug 0.156 uM): 0.07069

Compound: NC(=O)Nc1sc(-c2ccc(F)cc2)cc1C(N)=O [TPCA-1]
- Kinase inhibition profile of HGSOC cells (growth inhibition, Cell Titer Glo) (COV362; drug 1.2 uM): 1.094
- Kinase inhibition profile of HGSOC cells (growth inhibition, Cell Titer Glo) (OVCAR4; drug 1.2 uM): 0.8768
- Kinase inhibition profile of HGSOC cells (growth inhibition, Cell Titer Glo) (OVSAHO; drug 1.2 uM): 0.9827
- Kinase inhibition profile of HGSOC cells (growth inhibition, Cell Titer Glo) (SNU-119; drug 1.2 uM): 0.9375
- Kinase inhibition profile of HGSOC cells (growth inhibition, Cell Titer Glo) (Kuramochi; drug 1.2 uM): 0.988

Compound: CC(=O)Nc1cccc(-n2c(=O)n(C3CC3)c(=O)c3c(Nc4ccc(I)cc4F)n(C)c(=O)c(C)c32)c1 [Trametinib]
- Kinase inhibition profile of HGSOC cells (growth inhibition, Cell Titer Glo) (COV362; drug 0.0125 uM): 0.5766
- Kinase inhibition profile of HGSOC cells (growth inhibition, Cell Titer Glo) (OVCAR4; drug 0.0125 uM): 0.8436
- Kinase inhibition profile of HGSOC cells (growth inhibition, Cell Titer Glo) (OVSAHO; drug 0.0125 uM): 0.7824
- Kinase inhibition profile of HGSOC cells (growth inhibition, Cell Titer Glo) (SNU-119; drug 0.0125 uM): 0
- Kinase inhibition profile of HGSOC cells (growth inhibition, Cell Titer Glo) (Kuramochi; drug 0.0125 uM): 0.7708

Compound: CNCc1ccc(-c2cc(-c3nc(-c4ccc(S(=O)(=O)C(C)C)cc4)cnc3N)on2)cc1 [VX-90]
- Kinase inhibition profile of HGSOC cells (growth inhibition, Cell Titer Glo) (COV362; drug 0.625 uM): 0.3346
- Kinase inhibition profile of HGSOC cells (growth inhibition, Cell Titer Glo) (OVCAR4; drug 0.625 uM): 0.2646
- Kinase inhibition profile of HGSOC cells (growth inhibition, Cell Titer Glo) (OVSAHO; drug 0.625 uM): 0.5885
- Kinase inhibition profile of HGSOC cells (growth inhibition, Cell Titer Glo) (SNU-119; drug 0.625 uM): 0.51
- Kinase inhibition profile of HGSOC cells (growth inhibition, Cell Titer Glo) (Kuramochi; drug 0.625 uM): 0.6083

Compound: Cc1cnc(Nc2ccc(F)cc2Cl)nc1-c1c[nH]c(C(=O)N[C@H](CO)c2cccc(Cl)c2)c1 [Vx-11e]
- Kinase inhibition profile of HGSOC cells (growth inhibition, Cell Titer Glo) (COV362; drug 0.625 uM): 1.014
- Kinase inhibition profile of HGSOC cells (growth inhibition, Cell Titer Glo) (OVCAR4; drug 0.625 uM): 0.9623
- Kinase inhibition profile of HGSOC cells (growth inhibition, Cell Titer Glo) (OVSAHO; drug 0.625 uM): 0.5488
- Kinase inhibition profile of HGSOC cells (growth inhibition, Cell Titer Glo) (SNU-119; drug 0.625 uM): 0.3359
- Kinase inhibition profile of HGSOC cells (growth inhibition, Cell Titer Glo) (Kuramochi; drug 0.625 uM): 0.3596

Compound: AZD4547
- Kinase inhibition profile of HGSOC cells (growth inhibition, Cell Titer Glo) (COV362; drug 5 uM): 0.5474
- Kinase inhibition profile of HGSOC cells (growth inhibition, Cell Titer Glo) (OVCAR4; drug 5 uM): 0.5989
- Kinase inhibition profile of HGSOC cells (growth inhibition, Cell Titer Glo) (OVSAHO; drug 5 uM): 0.4351
- Kinase inhibition profile of HGSOC cells (growth inhibition, Cell Titer Glo) (SNU-119; drug 5 uM): 0.738
- Kinase inhibition profile of HGSOC cells (growth inhibition, Cell Titer Glo) (Kuramochi; drug 5 uM): 0.7095
